Measured values published in BindingDB's records for patent US12492186 (Bristol Myers Squibb, 2025).

These compounds were tested against T1, Interleukin-1 receptor-associated kinase 4 (Homo sapiens, UniProt Q9NWZ3) (assay: IRAK4 Inhibition Assay).
T1 sequence (Q9NWZ3 whole entry): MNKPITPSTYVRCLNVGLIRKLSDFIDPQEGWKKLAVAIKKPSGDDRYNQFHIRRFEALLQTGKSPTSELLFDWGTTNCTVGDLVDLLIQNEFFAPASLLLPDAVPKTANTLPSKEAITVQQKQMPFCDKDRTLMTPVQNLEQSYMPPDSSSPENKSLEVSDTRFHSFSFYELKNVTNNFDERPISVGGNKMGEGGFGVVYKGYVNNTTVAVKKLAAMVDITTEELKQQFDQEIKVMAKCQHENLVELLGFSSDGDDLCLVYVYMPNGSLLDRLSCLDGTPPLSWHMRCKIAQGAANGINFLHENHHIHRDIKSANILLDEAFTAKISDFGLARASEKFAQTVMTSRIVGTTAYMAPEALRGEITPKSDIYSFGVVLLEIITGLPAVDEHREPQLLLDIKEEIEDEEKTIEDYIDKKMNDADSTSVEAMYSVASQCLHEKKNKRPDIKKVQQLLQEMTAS
Experimental: The assays were performed in U-bottom 384-well plates. The final assay volume was 30 μL prepared from 15 μL additions of enzyme and substrates (fluoresceinated peptide and ATP) and test compounds in assay buffer (20 mM HEPES pH 7.2, 10 mM MgCl2, 0.015% Brij 35 and 4 mM DTT). The reaction was initiated by the combination of IRAK4 with substrates and test compounds. The reaction mixture was incubated at room temperature for 60 min. and terminated by adding 45 μL of 35 mM EDTA to each sample. The reaction mixture was analyzed on the Caliper LABCHIP 3000 (Caliper, Hopkinton, MA) by electrophoretic separation of the fluorescent substrate and phosphorylated product. Inhibition data were calculated by comparison to no enzyme control reactions for 100% inhibition and vehicle-only reactions for 0% inhibition. The final concentrations of reagents in the assays are ATP, 500 μM; FL-IPTSPITTTYFFFKKK peptide 1.5 μM; IRAK4, 0.6 nM; and DMSO, 1.6%.

Row | IC50 | SMILES
1 | 4.8 nM | CC(C)Nc1c(-c2cc(C3CCCCN3)no2)cnc2ccc(-c3cn[nH]c3)cc12 (stereo not drawn) [US12492186, Example 128]
2 | 17.6 nM | CC(O)CCNC(=O)c1cnc2ccc(-c3cn[nH]c3)cc2c1NC1CC(F)(F)C1 (stereo not drawn) [US12492186, Example 54]
3 | 15.2 nM | CC(O)CCNC(=O)c1cnc2ccc(-c3cn[nH]c3)cc2c1NCC(F)F (stereo not drawn) [US12492186, Example 65]
